From PubChem BioAssay AID2305 (GlaxoSmithKline (GSK), 2010)
Several values for one entry are separate records, joined by “and”; a condition that tells them apart may be missing. Equal values may be shown once.

Test system: P. falciparum 3D7 growth, pLDH absorbance
Assay: P. falciparum 3D7 growth inhibition, dose response, strain 3D7 (AID 2305)

| SMILES | IC50 |
| --- | --- |
| O=C(Nc1ccc2c(c1)OCO2)c1cc(-c2cccnc2)cnc1NCc1ccc2c(c1)OCO2 | 1190 nM |
| CC(C)CCn1c(Sc2ccc(C#N)c([N+](=O)[O-])c2)nnc1-c1ccc(Cl)cc1 | 870 nM |
| CCN(CC)C(=NCCCCCCN=C(NC(N)=NCc1ccc(Cl)cc1)N(CC)CC)NC(N)=NCc1ccc(Cl)cc1 | 230 nM |
| Cc1cccc2[nH]c(-c3ccc(-c4cccc(CN5CCN(c6ccncc6)CC5)c4)s3)nc12 | 130 nM |
| Cc1cc(N2CCCC2)nc(Nc2ccc(NC(=O)c3cccc(F)c3)cc2)n1 | 180 nM |
| Nc1oc2c(CN3CCCCCC3)c(O)ccc2c(=O)c1-c1nc2ccccc2s1 | 520 nM |
| O=C(COc1ccccc1Cl)N1CCc2cc3nccc(N4CCN5CCC[C@H]5C4)c3cc21 | 740 nM |
| Cc1nc2nc(N)nc(N)c2c(C)c1Cc1ccc(C#N)cc1 | 540 nM |
| COc1ccc(NC(=O)C=Cc2ccc(Oc3ccccc3Cl)c([N+](=O)[O-])c2)cc1OCCN(C(C)C)C(C)C | 880 nM |
| O=S1(=O)NCc2ccc(Nc3nccc(Nc4ccc5c(cnn5Cc5ccccc5)c4)n3)cc21 | 750 nM |
| CCCOc1cc2c(cc1OCCC)C(C=Cc1ccc(Cl)cc1Cl)=NC(C)C2 (stereo not drawn) | 370 nM |
| COC(=O)c1ccccc1N1CCN(CCCCNC(=O)c2ccc(NC(=O)c3cc(Cl)cc(Cl)c3)cc2)CC1 | 560 nM |
| CC1CN(Cc2cccc(C#N)c2)CCN1c1ccc(NC(=O)c2cccs2)cc1 (stereo not drawn) | 680 nM |
| CCC[C@@H]([C@@H](CC(C)C)C(=O)N[C@H](C(=O)Nc1nccs1)C(C)(C)SCCNC(=O)OCC)N(O)C=O | 170 nM |
| COc1ccc(CNCc2cccc(-c3ccc(-c4nc5ccccc5[nH]4)cc3)c2)cc1 | 310 nM |
| O=C(CCc1ccc(Cl)cc1Cl)NC1CCC(CN2CCC(c3c[nH]c4ccccc34)CC2)CC1 (stereo not drawn) | 900 nM and 220 nM |
| COc1cc2c(cc1S(=O)(=O)c1ccc(NC(=O)c3cc4ccccc4s3)cc1)CCN(C)CC2 | 840 nM |
| Cc1cc(OCCN2CCCCC2)ccc1NC(=O)c1cccc2c(=O)n(Cc3ccc(Cl)cc3)cnc12 | 1060 nM |
| Cc1cccc2[nH]c(-c3ccc(-c4ccc(CNCCCNS(C)(=O)=O)cc4)s3)nc12 | 1000 nM |
| COC(=O)c1ccc(CCC(C)NCC(O)c2cccc(Cl)c2)cc1 (stereo not drawn) | 670 nM |
| CS(=O)(=O)Nc1cccc(-c2cnc3[nH]cc(-c4ccc(C(=O)O)c(F)c4)c3c2)c1 | 830 nM |
| COc1ccc(CCN(C)CCc2ccc(NC(=O)c3cccc4c(=O)c5ccccc5sc34)cc2)cc1 | 860 nM |
| CC1Cc2ccccc2N1S(=O)(=O)c1cccc(C(=O)Nc2nc(-c3ccccn3)cs2)c1 (stereo not drawn) | 1320 nM |
| O=c1cc(NCCCCNCc2cccc(C(F)(F)F)c2)[nH]c2ccccc12 | 790 nM |

| SMILES | IC50 |
| --- | --- |
| O=C(/C=C/c1ccc(Cl)c(Cl)c1)NCCCCCN1CC[C@H](NC(=O)/C=C/c2ccccc2)C1 | 1000 nM |
| O=C(CCc1ccccc1)NC(c1ccc(Cl)cc1)c1ccc2cccnc2c1O (stereo not drawn) | 850 nM |
| O=c1[nH]c2c(cc1CNC1CCCCC1)c(-c1cccc(F)c1)nn2-c1ccccc1 | 950 nM |
| COc1ccc(CNCCc2cccs2)cc1-c1ccc(S(=O)(=O)NCCN2CCCC2)cc1 | 650 nM |
| O=[N+]([O-])c1cccc(-n2nc(NCc3ccc(Cl)cc3)nc2-c2ccc(F)c(C(F)(F)F)c2)c1 | 240 nM |
| CC(C)C[C@@H](/C=N/N1CCOC1=O)NC(=O)[C@H](CC(C)C)NC(=O)c1ccc(F)cc1 | 1170 nM |
| Cc1cccc2[nH]c(-c3ccc(-c4ccc(CN5CCN(CCN6CCOCC6)CC5)cc4)cc3)nc12 | 230 nM |
| O=C(NC1CC1)c1ccc(Cn2c(SCc3cccc([N+](=O)[O-])c3)nc3ccccc3c2=O)cc1 | 760 nM |
| O=C(/C=C/c1ccc(Cl)c(Cl)c1)NCCCCCCN1CCN(C(=O)Nc2cccc(Cl)c2)CC1 | 980 nM |
| CC(C)c1cc2c(ccc3nc(N)nc(N)c32)o1 | 90 nM |
| COc1ccc(C(=O)NCCCCN2CCC(c3ccc4c(c3OC)CCCC4)CC2)cc1-c1ccc(C(F)(F)F)cc1 | 750 nM |
| COc1cc(C2CCN(CCCCNC(=O)c3ccc(NC(=O)c4cc(C(F)(F)F)cc(C(F)(F)F)c4)cc3)CC2)ccc1OC(C)C | 150 nM |
| Cc1[nH]c(C)c(-c2ccc(OCCCCSc3ccncc3)cc2)c(=O)c1Br | 250 nM |
| O=C(CN(c1cccc(C(F)(F)F)c1)S(=O)(=O)c1ccc(Cl)cc1)NCCC(c1ccccc1)c1ccccc1 | 740 nM |
| O=C(/C=C/c1ccc(Cl)c(Cl)c1)NCCCCCN1CCC(NC(=O)c2ccc3ccccc3c2)CC1 | 1020 nM |
| COc1cc(NC(=O)Nc2ccnc3ccccc23)cc(OC)c1 | 470 nM |
| CCN(CC)CCCSc1ccc(-c2ccc(SCCCN(CC)CC)cc2)cc1 | 1160 nM |
| Cc1[nH]c(C)c(-c2ccc(Oc3cccc(Cl)c3)cc2)c(=O)c1Cl | 20 nM |
| Cc1cc(N)c2cc(NC(=O)CCC(=O)Nc3ccc4nc(C)cc(N)c4c3)ccc2n1 | 950 nM |
| O=C(NCC1CCC(CNCCCc2ccccc2)CC1)Nc1ccc(Cl)c(Cl)c1 (stereo not drawn) | 770 nM |
| CC(=O)N1CCN(c2ccc(NC(=O)c3oc(-c4ccccc4)nc3C(F)(F)F)cn2)CC1 | 840 nM |
| COc1cccc(CN2CCCC(OC(c3ccc(F)cc3)c3ccc(F)cc3)C2)c1O (stereo not drawn) | 790 nM |
| CC(C)=C(C(=O)OCc1ccccc1)N1C(=O)[C@@H](NC(c2ccccc2)(c2ccccc2)c2ccccc2)[C@H]1[S@@](=O)CC(=O)OC(C)(C)C | 1020 nM |
| O=C(Nc1cccc(F)c1)c1ccc(C(=O)NC2CCN(CC3CCCCC3)CC2)cc1 | 860 nM |
